Assay: xn = mol fraction of the nth substance listed

NCCC(=O)O + O
viscosity [mPa·s], 100 kPa
Settings	x1 = 0.000358	x1 = 0.000542	x1 = 0.00072	x1 = 0.000808	x1 = 0.00108	x1 = 0.00126	x1 = 0.00144	x1 = 0.0018
293.15 K	1.006	1.008	1.009	1.011	1.014	1.016	1.018	1.022
298.15 K	0.894	0.894	0.896	0.898	0.901	0.902	0.905	0.908
303.15 K	0.8	0.8	0.802	0.804	0.805	0.807	0.809	0.812
308.15 K	0.721	0.721	0.723	0.725	0.725	0.728	0.729	0.732
313.15 K	0.653	0.653	0.655	0.657	0.657	0.659	0.66	0.663

O=[N+]([O-])c1ccc(O)cc1 + CCCCCOC(C)=O
Settings	viscosity [mPa·s]
298.15 K, 101 kPa, x1 = 0.5	1.564

CC[N+](=O)[O-] + CCCO
viscosity [mPa·s], 101.33 kPa
Settings	293.15 K	303.15 K	313.15 K
x2 = 0.05	0.686	0.609	0.544
x2 = 0.1	0.683	0.605	0.539
x2 = 0.1499	0.69	0.607	0.539
x2 = 0.2001	0.702	0.617	0.547
x2 = 0.25	0.72	0.629	0.554
x2 = 0.3	0.748	0.647	0.567
x2 = 0.35	0.776	0.667	0.581
x2 = 0.4	0.808	0.694	0.609
x2 = 0.45	0.848	0.724	0.623
x2 = 0.5	0.898	0.758	0.655
x2 = 0.55	0.951	0.8	0.681
x2 = 0.6	1.016	0.852	0.718
x2 = 0.65	1.085	0.902	0.756
x2 = 0.7	1.17	0.967	0.808
x2 = 0.75	1.282	1.043	0.881
x2 = 0.8	1.391	1.133	0.947
x2 = 0.85	1.539	1.243	1.035
x2 = 0.9	1.717	1.377	1.125
x2 = 0.95	1.945	1.559	1.239

CC[N+](=O)[O-] + CCO
viscosity [mPa·s], 101.33 kPa
Settings	293.15 K	303.15 K	313.15 K
x2 = 0.05	0.669	0.598	0.538
x2 = 0.1001	0.655	0.584	0.526
x2 = 0.15	0.648	0.576	0.519
x2 = 0.2	0.645	0.573	0.512
x2 = 0.25	0.65	0.57	0.507
x2 = 0.3	0.651	0.571	0.506
x2 = 0.35	0.658	0.575	0.509
x2 = 0.4	0.668	0.583	0.513
x2 = 0.45	0.681	0.593	0.519
x2 = 0.5	0.697	0.603	0.528
x2 = 0.55	0.716	0.618	0.538
x2 = 0.6	0.738	0.636	0.55
x2 = 0.65	0.769	0.656	0.567
x2 = 0.7	0.804	0.682	0.586
x2 = 0.7499	0.839	0.712	0.608
x2 = 0.8	0.886	0.748	0.637
x2 = 0.8499	0.944	0.793	0.672
x2 = 0.9	1.015	0.847	0.715
x2 = 0.9499	1.103	0.914	0.77

CCCCN + CCOCCO
308.15 K, 101 kPa
Settings	viscosity [mPa·s]
x2 = 0.0802	0.5335
x2 = 0.2044	0.6473
x2 = 0.3059	0.7671
x2 = 0.4065	0.8896
x2 = 0.5068	1.007
x2 = 0.6065	1.115
x2 = 0.7058	1.209
x2 = 0.9024	1.376

O=c1[nH]cc(F)c(=O)[nH]1 + O
298.15 K, 101.3 kPa
Settings	viscosity [mPa·s]
x1 = 3.46e-05	0.8891
x1 = 9.06e-05	0.8892
x1 = 0.000191	0.8901
x1 = 0.000303	0.8905
x1 = 0.000519	0.8917
x1 = 0.000754	0.8926
x1 = 0.000864	0.8933
x1 = 0.00108	0.8946

CCCCN + NC1CCCCC1
298.15 K, 101 kPa
Settings	viscosity [mPa·s]
x2 = 0.0757	0.6805
x2 = 0.1557	0.8796
x2 = 0.2401	1.111
x2 = 0.3296	1.33
x2 = 0.4244	1.548
x2 = 0.5252	1.774
x2 = 0.6324	1.954
x2 = 0.7468	2.035
x2 = 0.8691	1.976

Cc1ccncc1 + CCO
298.15 K, 101.33 kPa
Settings	viscosity [mPa·s]
x2 = 0.119	0.878
x2 = 0.2179	0.8832
x2 = 0.3335	0.8963
x2 = 0.426	0.9084
x2 = 0.5813	0.9345
x2 = 0.7893	0.9902
x2 = 0.8494	1.015
x2 = 0.9031	1.041

CCC(C)(C)C + CCCCCCCCCCCCCCCC
298 K, 101.33 kPa
Settings	viscosity [mPa·s]
x1 = 0.1107	2.735
x1 = 0.2098	2.405
x1 = 0.3108	2.071
x1 = 0.4014	1.788
x1 = 0.5013	1.486
x1 = 0.6057	1.211
x1 = 0.7048	0.9511
x1 = 0.8022	0.711
x1 = 0.9014	0.5046

CCCCCCCCCC(=O)OCC + CCCCCO
viscosity [mPa·s], 100 kPa
Settings	x1 = 0.1005	x1 = 0.201	x1 = 0.3	x1 = 0.4	x1 = 0.498	x1 = 0.5999	x1 = 0.7009	x1 = 0.7997	x1 = 0.8996
293.15 K	3.246	2.808	2.563	2.417	2.33	2.29	2.258	2.259	2.289
298.15 K	2.839	2.481	2.277	2.156	2.086	2.052	2.031	2.036	2.061
303.15 K	2.493	2.202	2.036	1.943	1.878	1.852	1.834	1.842	1.866
308.15 K	2.218	1.965	1.827	1.744	1.698	1.683	1.668	1.676	1.702
313.15 K	1.966	1.762	1.648	1.581	1.543	1.529	1.522	1.536	1.558
318.15 K	1.823	1.586	1.492	1.438	1.408	1.396	1.396	1.408	1.432

CC[N+](=O)[O-] + Cc1cc(C)cc(C)c1
293.15 K, 101.33 kPa
Settings	viscosity [mPa·s]
x1 = 0.0912	0.69
x1 = 0.1908	0.685
x1 = 0.2974	0.68
x1 = 0.3871	0.675
x1 = 0.5179	0.669
x1 = 0.6112	0.665
x1 = 0.6912	0.665
x1 = 0.7813	0.669
x1 = 0.8874	0.671

CCCCN + C1CCCCC1
viscosity [mPa·s], 101 kPa
Settings	303.15 K	313.15 K
x1 = 0.00966	0.8095	0.7083
x1 = 0.01973	0.8005	0.6998
x1 = 0.02822	0.7907	0.6925
x1 = 0.03804	0.7823	0.6831
x1 = 0.04713	0.7702	0.6749
x1 = 0.05811	0.758	0.6646
x1 = 0.0674	0.7469	0.6553
x1 = 0.07236	0.7374	0.6487
x1 = 0.08731	0.7267	0.637
x2 = 0.1009	0.453	–
x2 = 0.2007	0.467	–
x2 = 0.3012	0.492	–
x2 = 0.3987	0.501	–
x2 = 0.4982	0.529	–
x2 = 0.5729	0.553	–
x2 = 0.7003	0.601	–
x2 = 0.7863	0.652	–
x2 = 0.8993	0.725	–

Cc1ccncc1 + CCC(C)O
298.15 K, 101.33 kPa
Settings	viscosity [mPa·s]
x2 = 0.0808	0.8992
x2 = 0.1812	0.9547
x2 = 0.2378	0.9923
x2 = 0.3187	1.047
x2 = 0.3221	1.052
x2 = 0.3999	1.131
x2 = 0.4574	1.186
x2 = 0.5582	1.328
x2 = 0.6284	1.445
x2 = 0.7034	1.608
x2 = 0.8528	2.092
x2 = 0.9272	2.446

O=C(O)C(Cl)(Cl)Cl + CC(=O)O
298.15 K, 101 kPa
Settings	viscosity [mPa·s]
x1 = 0.0737	1.532
x1 = 0.1777	2.228
x1 = 0.3209	3.362
x1 = 0.4348	4.346
x1 = 0.5262	5.176
x1 = 0.5853	5.859
x1 = 0.6581	6.854
